According to patent US20020182614A1, “Expression analysis of inhibitor of differentiation nucleic acids and polypeptides useful in the diagnosis and treatment of prostate cancer” (priority 2000, published 2002):

Legend:
LNCaP cells = system: LNCaP cells
Procedure: Human prostatic cancer cell lines LNCaP, DU-145, PC-3, and Tsu-prl were obtained from ATCC. LNCaP cancer cells were maintained in humidified atmosphere of 5% CO2 in air in RPMI 1640 medium supplemented with 10% fetal calf serum (Life Technologies, Inc, Rockville, Md.), 3 mM L-glutamine, 100 μg/ml streptomycin and 100 units/ml penicillin. Other lines were maintained in DMEM containing 3 mM L-glutamine, 100 μg/ml streptomycin, 100 units/ml penicillin, and 10% FCS in humidified atmosphere of 5% CO2. To examine the effects of steroids, cells were cultured in RPMI 1640 medium containing 5% FCS treated with dextran coated charcoal (Hyclone, Logan, Utah) for 24 hs before treatment. Cells were grown in the absence or presence of 10 nM DHT for 0, 2, 4, 6, 12, 24, 48, and 72 hs. They were collected and frozen at each time point. Two hundred μl of medium were collected from each flask for PSA assay.
To verify the effect of DHT on the growth of LNCaP cells, cells at 3,000 cells/well were plated in 96-well plates for 24 hs before treatment with DHT. After 72 hs, MTT was added to each well and incubated at 37° C. for four hs. At the end of incubation, the supernatant was removed and 100 μl DMSO was added to each well to dissolve […]. Plates were subsequently read in a plate reader at […].

ID-3 = conditions: LNCaP cells, in the presence of androgen
ID-1 = conditions: LNCaP cells, in the presence of androgen
PSA [1] = conditions: LNCaP cells, mRNA
PSA [2] = system: PSA

`C[C@]12CCC(=O)C[C@@H]1CC[C@@H]1[C@@H]2CC[C@]2(C)[C@@H](O)CC[C@@H]12` [DHT, dihydrotestosterone] was tested, and the growth-stimulatory effect (LNCaP cells; 10 nM DHT) was “robust growth-stimulatory effect”, the “growth of LNCaP cells” value (LNCaP cells; MTT assay, FIG. 1A) was “stimulated” and the ID-3 expression level (ID-3) was “reduced”. For the same compound, the ID-1 expression level (ID-1) was “reduced”, the “PSA expression increase relative to control” value (PSA [1]; 12 hours) was 3 fold and the “PSA expression induction relative to control” value (PSA [1]; 72 hours) was “approximately 4 fold”. The PSA production (PSA [2]) was “increased in a dose-dependent manner”, the “time at which PSA signal was first detected” value (PSA [2]) was 12 h and the “time of maximal PSA level” value (PSA [2]) was “about 48 hs”.
